Laboratory results from EP0342003B1, “Use of 15-ketoprostaglandin E or F compounds for uterine contraction” (Kabushiki Kaisha Ueno Seiyaku Oyo Kenkyujo, priority 1988, dated 1989).

What was measured:
[1] = system: ileum; assay: Intestinal contraction of an isolated ileum section in a Magnus tube (reference example); type: cell-based, Wistar rat; conditions: result in words
Method: Test Example 3 (Intestinal contraction ... Reference example)
A section was cut off from ileum of a Wistar rat (male) and hung in a Magnus tube. The section was contracted several times by administering acetylcholine (1x10⁻⁶ g/ml) and received test compounds after giving two or more contractions of the same intensity. Contractions obtained by the test compounds were expressed as a ratio to the contraction by acetylcholine (1x10⁻⁶ g/ml) which was taken as 100%, and EC₅₀ values were calculated as a concentrations for 50% contraction.

[2] = system: uterus; assay: Uterine contraction of an isolated uterus section in a Magnus tube; type: cell-based; conditions: Rattus norvegicus, ratio to contraction by oxytocin (1mU) taken as 100%; for activation at 1 µM: Dose 1x10^-6 M; for activation at 0.3 µM: Dose 3x10⁻⁷ M
Method: Test Example 1 (Uterine contraction)
An estrous rat (female, 150g) was used as test animals. The rat was sacrificed by bleeding and uterus was extirpated. A section of about 2.0cm was cut off and hung in a Magnus tube containing Tyrode solution or Beauvillain solution.
The section of uterus was held for about 5 minutes until it because stable and then contracted several times by administering oxytocin (1mU). After stable contraction was obtained, the section received test compounds. Contractions obtained by the test compounds were expressed as a ratio to the contraction by oxytocin which was taken as 100%. The results are shown in Table 1 (15-keto-PGE derivatives) and Table 2 (15-keto-PGF derivatives).

CCCCCC(=O)CC[C@@H]1[C@@H](C/C=C\CCCC(=O)OC)[C@@H](O)C[C@H]1O [13,14-dihydro-15-keto-PGF2α methyl ester]
intestinal contraction [1]: without intestinal contraction

CCCCC(F)C(=O)CC[C@H]1[C@H](O)CC(=O)[C@@H]1CC(=O)CCCCC(=O)OCC (stereo partly shown) [X-1, 13,14-dihydro-6,15-diketo-16R,S-fluoro-PGE1 ethyl ester]
activation at 100 µM ([2]; Table 1, Dose 1x10^-4 M): 86%

CCCCC(F)C(=O)CC[C@H]1[C@H](C)CC(=O)[C@@H]1CC(=O)CCCCC(=O)OCC (stereo partly drawn) [X-2, 13,14-dihydro-6,15-diketo-16R,S-fluoro-11-dehydroxy-11R-methyl-PGE1 ethyl ester]
activation at 10 µM ([2]; Table 1, Dose 1x10^-5 M): 82%

CCCCC(O)C(=O)CC[C@H]1[C@H](O)CC(=O)[C@@H]1C/C=C\CCCC(=O)OCC (stereo partly shown) [X-3, 13,14-dihydro-15-keto-16R,S-hydroxy-PGE2 ethyl ester]
activation at 100 µM ([2]; Table 1, Dose 1x10^-4 M): 50%

CCCCC(F)C(=O)CC[C@H]1[C@H](O)CC(=O)[C@@H]1C/C=C\CCCC(=O)O (stereo partly shown) [X-4, 13,14-dihydro-15-keto-16R,S-fluoro-PGE2]
activation at 1 µM ([2]; Table 1): 87%

CCCCC(F)C(=O)CC[C@H]1[C@H](O)CC(=O)[C@@H]1C/C=C\CCCC(=O)OC (stereo partly shown) [X-5, 13,14-dihydro-15-keto-16R,S-fluoro-PGE2 methyl ester]
activation at 3 µM ([2]; Table 1, Dose 3x10^-6 M): 64%

CCCCC(F)C(=O)CC[C@H]1[C@H](O)CC(=O)[C@@H]1C/C=C\CCCC(=O)OCC (stereo partly shown) [X-6, 13,14-dihydro-15-keto-16R,S-fluoro-PGE2 ethyl ester]
activation at 10 µM ([2]; Table 1, Dose 1x10^-5 M): 89%

CCCCC(F)C(=O)CC[C@H]1[C@H](C)CC(=O)[C@@H]1C/C=C\CCCC(=O)OCC (stereo partly drawn) [X-7, 13,14-dihydro-15-keto-16R,S-fluoro-11-dehydroxy-11R-methyl-PGE2 ethyl ester]
activation at 100 µM ([2]; Table 1, Dose 1x10^-4 M): 50%

COCCCCC(C)(C)C(=O)CC[C@H]1[C@H](O)CC(=O)[C@@H]1C/C=C\CCCC(=O)OC [X-8]
activation at 10 µM ([2]; Table 1, Dose 1x10^-5 M): 64%

CCCCC(F)C(=O)/C=C/[C@H]1[C@H](O)CC(=O)[C@@H]1C/C=C\CCCC(=O)OC (stereo partly shown) [X-9]
activation at 10 µM ([2]; Table 1, Dose 1x10^-5 M): 84%

CCCCCC(F)C(=O)CC[C@H]1[C@H](O)CC(=O)[C@@H]1C/C=C\CCCC(=O)OC (stereo partly shown) [X-10]
activation at 10 µM ([2]; Table 1, Dose 1x10^-5 M): 80%

CCCCC(F)C(=O)/C=C/[C@H]1[C@H](O)CC(=O)[C@@H]1C/C=C\CCCC(=O)O (stereo partly shown) [X-11]
activation at 1 µM ([2]; Table 1): 80%

CCCCC(F)C(=O)CC[C@H]1[C@H](O)CC(=O)[C@@H]1CCCCCCC(=O)O (stereo partly shown) [X-12]
activation at 1 µM ([2]; Table 1): 34%

CCCCC(F)(F)C(=O)CC[C@H]1[C@H](O)CC(=O)[C@@H]1C/C=C\CCCC(=O)OC [X-13]
activation at 1 µM ([2]; Table 1): 63%

CCCCC(F)(F)C(=O)CC[C@H]1[C@H](O)CC(=O)[C@@H]1C/C=C\CCCC(=O)O [X-14]
activation at 1 µM ([2]; Table 1): 81%

O=C(O)CCC/C=C\C[C@H]1C(=O)C[C@@H](O)[C@@H]1CCC(=O)COc1cccc(C(F)(F)F)c1 [X-15]
activation at 1 µM ([2]; Table 1): 32%

CCCCC(F)C(=O)CC[C@@H]1[C@@H](C/C=C\CCCC(=O)O)[C@@H](O)C[C@H]1O (stereo partly drawn) [Y-1, 13,14-dihydro-15-keto-16R,S-fluoro-PGF2α]
activation at 0.3 µM ([2]; Table 2): 89%

CCCCC(F)C(=O)CC[C@@H]1[C@@H](C/C=C\CCCC(=O)OC)[C@@H](O)C[C@H]1O (stereo partly drawn) [Y-2, 13,14-dihydro-15-keto-16R,S-fluoro-PGF2α methyl ester]
activation at 3 µM ([2]; Table 2, Dose 3x10⁻⁶ M): 70%

CCCCC(F)(F)C(=O)CC[C@@H]1[C@@H](C/C=C\CCCC(=O)OC)[C@@H](O)C[C@H]1O [Y-3, 13,14-dihydro-15-keto-16,16-difluoro-PGF2α methyl ester]
activation at 3 µM ([2]; Table 2, Dose 3x10⁻⁶ M): 82%

CCCCC(F)C(=O)CC[C@@H]1[C@@H](C/C=C\CCCC(=O)OCC)[C@@H](O)C[C@H]1C (stereo partly drawn) [Y-4, 13,14-dihydro-15-keto-16R,S-fluoro-11-dehydroxy-11R-methyl-PGF2α ethyl ester]
activation at 100 µM ([2]; Table 2, Dose 1x10⁻⁴ M): 50%

CCCCCC(F)C(=O)CC[C@@H]1[C@@H](C/C=C\CCCC(=O)OC)[C@@H](O)C[C@H]1O (stereo partly drawn) [Y-5, 13,14-dihydro-15-keto-16R,S-fluoro-20-methyl-PGF2α methyl ester]
activation at 3 µM ([2]; Table 2, Dose 3x10⁻⁶ M): 42%

CCCCCCC(F)C(=O)CC[C@@H]1[C@@H](C/C=C\CCCC(=O)O)[C@@H](O)C[C@H]1O (stereo partly drawn) [Y-6, 13,14-dihydro-15-keto-20-ethyl-16R,S-fluoro-PGF2α]
activation at 0.3 µM ([2]; Table 2): 92%

CCCCCCC(F)C(=O)CC[C@@H]1[C@@H](C/C=C\CCCC(=O)OC)[C@@H](O)C[C@H]1O (stereo partly drawn) [Y-7, 13,14-dihydro-15-keto-20-ethyl-16R,S-fluoro-PGF2α methyl ester]
activation at 10 µM ([2]; Table 2, Dose 1x10⁻⁵ M): 85%

CCCCCCC(F)C(=O)CC[C@@H]1[C@@H](C/C=C\CCCC(=O)OC)[C@@H](O)C[C@H]1C (stereo partly drawn) [Y-8, 13,14-dihydro-15-keto-20-ethyl-16R,S-fluoro-11-dehydroxy-11R-methyl-PGF2α methyl ester]
activation at 100 µM ([2]; Table 2, Dose 1x10⁻⁴ M): 50%

COCCCCCC(=O)CC[C@@H]1[C@@H](C/C=C\CCCC(=O)OC)[C@@H](O)C[C@H]1O [Y-9, 13,14-dihydro-15-keto-20-methoxy-PGF2α methyl ester]
activation at 100 µM ([2]; Table 2, Dose 1x10⁻⁴ M): 50%

COC(=O)CCC/C=C\C[C@@H]1[C@@H](CCC(=O)COc2cccc(C(F)(F)F)c2)[C@H](O)C[C@@H]1O [Y-10, 13,14-dihydro-15-keto-16-desbutyl-16-m-trifluoromethylphenoxy-PGF2α methyl ester]
activation at 0.3 µM ([2]; Table 2): 92%

CCCCC(F)C(=O)/C=C/[C@@H]1[C@@H](C/C=C\CCCC(=O)OC)[C@@H](O)C[C@H]1O (stereo partly drawn) [Y-11, 15-keto-16R,S-fluoro-PGF2α methyl ester]
activation at 10 µM ([2]; Table 2, Dose 1x10⁻⁵ M): 95%

O=C(O)CCC/C=C\C[C@@H]1[C@@H](CCC(=O)COc2cccc(C(F)(F)F)c2)[C@H](O)C[C@@H]1O [Y-12, 13,14-dihydro-15-keto-16-desbutyl-16-m-trifluoromethylphenoxy-PGF2α]
activation at 0.1 µM ([2]; Table 2, Dose 1x10⁻⁷ M): 52%
